Results published in publication PMC10034449, “FDA-approved Abl/EGFR/PDGFR kinase inhibitors show potent efficacy against pandemic and seasonal influenza A virus infections of human lung explants” (iScience, 2023).
Several values for one entry are separate records, joined by “and”; a condition that tells them apart may be missing. Identical values can stand only once.

Experiments:
NL09 or NL11 [1] = assay type: cell-based, influenza A virus
NL09 or NL11 [2] = assay type: cell-based, influenza A virus; remark: listed apart in the source
[3] = system: NL11 viral polymerase activity; assay type: cell-based, influenza A virus
[4] = system: A/Netherlands/602/09 (H1N1) replication complex (PB2, PB1, PA, NP); assay type: cell-based, influenza A virus
[5] = system: NL09 viral polymerase activity; assay type: cell-based, influenza A virus
NFkBpS536 (NFkB p65) = assay type: cell-based, human
[6] = system: human precision-cut lung slices (hPCLS); test: Ex vivo cytotoxicity in hPCLS (LDH-Glo, LDH release); conditions: 10xmax: DF 50 μM, BO 50 μM, SA 1.25 μM, up to 144 h
[7] = system: A/NL/213/03 (H3N2) replication complex (PB2, PB1, PA, NP); assay type: cell-based, influenza A virus
PDGFRα vs PDGFRβ = system: PDGFRα vs PDGFRβ; set-up: method as in PMID 19922818; conditions: cited from earlier work
PAK3 = conditions: 0.48 μM; cited from earlier work

Molecule | significance of titer reduction over the infection (NL09 or NL11 [1]) | effect on viral entry / virion localization (NL09 or NL11 [2]) | % Luminescence (relative to untreated / normalized to GFP) [3] | % Luminescence (relative to untreated / normalized to GFP) [4] | viral titer reduction (NL09 or NL11 [1]) | further results
CC#CC(=O)N1CCC[C@H]1c1nc(-c2ccc(C(=O)Nc3ccccn3)cc2)c2c(N)nccn12 [AC, Acalabrutinib] | only significant at 24 and 48 hpi | No significant changes were detectable | 67% | 82% | – | –
COc1cc(Nc2c(C#N)cnc3cc(OCCCN4CCN(C)CC4)c(OC)cc23)c(Cl)cc1Cl [BO, Bosutinib] | significant throughout the infections | no virus was detected | – | – | – | F-actin network (NL09 or NL11 [2]): not detectable
CNC(=O)c1ccc(Nc2ncc(C(F)(F)F)c(NCc3nccnc3N(C)S(C)(=O)=O)n2)cc1 [DF, Defactinib] | only significant at 24 and 48 hpi | significant retention at the membrane and cell periphery | – | – | at least 10 fold | reduction of polymerase reporter activity [5]: 20%; reduction of polymerase reporter activity [3]: 13%; NFkB p65 phosphorylation, pNFkB p65 / panNFkB p65 ratio (rel. to untreated) (NFkBpS536 (NFkB p65)): 64% and 68%; cytotoxicity (LDH release) relative to positive control [6]: > 20%
C=CC(=O)N1CCC[C@@H](n2nc(-c3ccc(Oc4ccccc4)cc3)c3c(N)ncnc32)C1 [IB, Ibrutinib] | significant throughout the infections | significant retention at the membrane and cell periphery | – | – | more than 1,000 fold | –
Cc1cn(-c2cc(NC(=O)c3ccc(C)c(Nc4nccc(-c5cccnc5)n4)c3)cc(C(F)(F)F)c2)cn1 [NI, Nilotinib] | significant throughout the infections | No significant changes were detectable | 62% and 45% | 73% and 61% | more than 1,000 fold | % Luminescence (relative to untreated / normalized to GFP) [5]: 50%; % Luminescence (relative to untreated / normalized to GFP) [7]: 71% and 64%; selectivity for PDGFRα than PDGFRβ (PDGFRα vs PDGFRβ): > 25 fold
CN1CCN(CCOc2cc(OC3CCOCC3)c3c(Nc4c(Cl)ccc5c4OCO5)ncnc3c2)CC1 [SA, Saracatinib] | – | No significant changes were detectable | 53% | 68% | – | % Luminescence (relative to untreated / normalized to GFP) [7]: 66%; cytotoxicity (LDH release) relative to positive control [6]: > 20%
CCN(CC)CCNC(=O)c1c(C)[nH]c(/C=C2\C(=O)Nc3ccc(F)cc32)c1C [sunitinib] | – | – | – | – | – | effect on PAK3 activity (PAK3): not even a 30-fold higher concentration (0.48 μM) has an effect
poly(IC) | – | – | – | – | – | induction of NFkBpS536 (NFkBpS536 (NFkB p65)): induced NFkBpS536
